Experiments:
[1] = refractive index (Na D-line) (dimensionless); conditions: 298.15 K; 101.33 kPa; Liquid; Standard Abbe refractometry
[2] = Liquid, Ebulliometric method (Recirculating still)

ClC(Cl)C(Cl)Cl [1,1,2,2-tetrachloroethane]
Conditions | refractive index
[1] | 1.492

[2]
Conditions | vapor or sublimation pressure [kPa]
343.15 K | 7.24
353.15 K | 11.23
363.15 K | 16.65
373.15 K | 24.17
379.75 K | 30.48
389.55 K | 42.33
396.35 K | 52.48
401.55 K | 61.35
405.55 K | 69.05
409.55 K | 77.59
413.45 K | 86.66
416.45 K | 94.27
418.95 K | 101.08

O=C1CCCCC1 [cyclohexanone]
Conditions | refractive index
[1] | 1.4481

[2]
Conditions | vapor or sublimation pressure [kPa]
343.15 K | 5.57
353.15 K | 8.6
363.15 K | 13.07
373.15 K | 18.9
385.45 K | 29.1
394.05 K | 38.41
401.35 K | 48.2
407.35 K | 57.43
414.75 K | 70.59
419.8 K | 81.35
424.05 K | 91.55
427.8 K | 101.1

O=C1CCCC1 [cyclopentanone]
Conditions | refractive index
[1] | 1.4349

[2]
Conditions | vapor or sublimation pressure [kPa]
323.15 K | 5.31
333.15 K | 8.49
343.15 K | 13.03
353.15 K | 19.61
358.85 K | 24.48
363.15 K | 28.61
363.45 K | 29.04
372.25 K | 39.48
378.35 K | 48.32
384.15 K | 57.77
388.85 K | 67.18
393.25 K | 76.67
397.65 K | 87.37
399.75 K | 92.98
403.05 K | 101.76

Reference: the NIST ThermoML archive (doi:10.1016/j.jct.2006.01.010)
